Data published in PubChem BioAssay AID270 (DTP/NCI, 2004).
“And” between values parts separate entries of the source, which are not always exact repeats. Equal values may be shown once. Results filed as inconclusive are left out.

Tested on: BDF1 mice, s.c. Lewis lung carcinoma, T/C %
Experiment: NCI In Vivo Anticancer Drug Screen. Data for tumor model Lewis Lung Carcinoma (subcutaneous) in B6D2F1 (BDF1) mice
In short: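 Antitumor effect in vivo is scored from survival or tumor burden, reported as treated relative to vehicle controls.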

[1] = endpoint: median survival time, dose: 25.0 mg/kg/injection, schedule: Q01DX009 (ip), vehicle: Klucel (hydroxypropylcellulose) (HPC), higher = longer survival

Which results are given for `CC(=O)OCC(=O)[C@@]1(O)CC[C@H]2[C@@H]3C[C@H](C)C4=CC(=O)C=C[C@]4(C)[C@@]3(Br)[C@@H](O)C[C@@]21C`?
T/C (endpoint: mean tumor weight, dose: 0.56 mg/kg/injection, schedule: Q01DX011 (sc), vehicle: steriod suspending solution, higher = larger tumour): 89 % of control; T/C (endpoint: mean tumor weight, dose: 1.12 mg/kg/injection, schedule: Q01DX011 (sc), vehicle: steriod suspending solution, higher = larger tumour): 69 % of control; T/C (endpoint: mean tumor weight, dose: 4.5 mg/kg/injection, schedule: Q01DX011 (sc), vehicle: steriod suspending solution, higher = larger tumour): 57 % of control and 72 % of control; T/C (endpoint: mean tumor weight, dose: 5.3 mg/kg/injection, schedule: Q01DX011 (sc), vehicle: steriod suspending solution, higher = larger tumour): 50 % of control; T/C (endpoint: mean tumor weight, dose: 7.9 mg/kg/injection, schedule: Q01DX011 (sc), vehicle: steriod suspending solution, higher = larger tumour): 45 % of control; T/C (endpoint: mean tumor weight, dose: 9.0 mg/kg/injection, schedule: Q01DX011 (sc), vehicle: steriod suspending solution, higher = larger tumour): 52 % of control; T/C (endpoint: mean tumor weight, dose: 11.8 mg/kg/injection, schedule: Q01DX011 (sc), vehicle: steriod suspending solution, higher = larger tumour): 31 % of control; T/C (endpoint: mean tumor weight, dose: 17.7 mg/kg/injection, schedule: Q01DX011 (ip), vehicle: carboxymethylcellulose (CMC), higher = larger tumour): 44 % of control; T/C (endpoint: mean tumor weight, dose: 17.7 mg/kg/injection, schedule: Q01DX011 (sc), vehicle: steriod suspending solution, higher = larger tumour): 28 % of control and 38 % of control; T/C (endpoint: mean tumor weight, dose: 18.0 mg/kg/injection, schedule: Q01DX011 (sc), vehicle: steriod suspending solution, higher = larger tumour): 42 % of control; T/C (endpoint: mean tumor weight, dose: 26.6 mg/kg/injection, schedule: Q01DX011 (ip), vehicle: carboxymethylcellulose (CMC), higher = larger tumour): 48 % of control; T/C (endpoint: mean tumor weight, dose: 26.6 mg/kg/injection, schedule: Q01DX011 (sc), vehicle: steriod suspending solution, higher = larger tumour): 37 % of control; T/C (endpoint: mean tumor weight, dose: 27.0 mg/kg/injection, schedule: Q01DX011 (sc), vehicle: steriod suspending solution, higher = larger tumour): 37 % of control; T/C (endpoint: mean tumor weight, dose: 40.0 mg/kg/injection, schedule: Q01DX011 (ip), vehicle: carboxymethylcellulose (CMC), higher = larger tumour): 13 % of control; T/C (endpoint: mean tumor weight, dose: 40.0 mg/kg/injection, schedule: Q01DX011 (sc), vehicle: steriod suspending solution, higher = larger tumour): 32 % of control; T/C (endpoint: mean tumor weight, dose: 50.0 mg/kg/injection, schedule: Q01DX011 (ip), vehicle: carboxymethylcellulose (CMC), higher = larger tumour): 59 % of control; T/C (endpoint: mean tumor weight, dose: 60.0 mg/kg/injection, schedule: Q01DX011 (ip), vehicle: carboxymethylcellulose (CMC), higher = larger tumour): 6 % of control; T/C (endpoint: mean tumor weight, dose: 60.0 mg/kg/injection, schedule: Q01DX011 (sc), vehicle: steriod suspending solution, higher = larger tumour): 34 % of control

Which results are given for `CC/C(=C(/CC)c1ccc(O)cc1)c1ccc(O)cc1`?
T/C (endpoint: mean tumor weight, dose: 12.5 mg/kg/injection, schedule: Q01DX011 (sc), vehicle: steriod suspending solution, higher = larger tumour): 38 % of control; T/C (endpoint: mean tumor weight, dose: 25.0 mg/kg/injection, schedule: Q01DX011 (sc), vehicle: steriod suspending solution, higher = larger tumour): 28 % of control; T/C (endpoint: mean tumor weight, dose: 50.0 mg/kg/injection, schedule: Q01DX011 (sc), vehicle: steriod suspending solution, higher = larger tumour): 17 % of control; T/C (endpoint: mean tumor weight, dose: 100.0 mg/kg/injection, schedule: Q01DX011 (sc), vehicle: steriod suspending solution, higher = larger tumour): 21 % of control; T/C [1]: 120 % of control; T/C (endpoint: median survival time, dose: 50.0 mg/kg/injection, schedule: Q01DX009 (ip), vehicle: Klucel (hydroxypropylcellulose) (HPC), higher = longer survival): 106 % of control; T/C (endpoint: median survival time, dose: 100.0 mg/kg/injection, schedule: Q01DX009 (ip), vehicle: Klucel (hydroxypropylcellulose) (HPC), higher = longer survival): 113 % of control; T/C (endpoint: median survival time, dose: 200.0 mg/kg/injection, schedule: Q01DX009 (ip), vehicle: Klucel (hydroxypropylcellulose) (HPC), higher = longer survival): 124 % of control

Which T/C (endpoint: median survival time, dose: 0.78 mg/kg/injection, schedule: Q01DX009 (ip), vehicle: saline, higher = longer survival) does the source give for `O=P(N1CCOCC1)(N1CC1)N1CC1` here?
The T/C was 100 % of control.

And the T/C (endpoint: median survival time, dose: 1.56 mg/kg/injection, schedule: Q01DX009 (ip), vehicle: saline, higher = longer survival)?
The T/C was 124 % of control.

What about the T/C (endpoint: median survival time, dose: 3.12 mg/kg/injection, schedule: Q01DX009 (ip), vehicle: saline, higher = longer survival) of the same compound?
Its T/C is 100 % of control.

What about the T/C (endpoint: median survival time, dose: 3.13 mg/kg/injection, schedule: Q01DX009 (ip), vehicle: saline, higher = longer survival) of the same compound?
The T/C was 113 % of control.

And the T/C (endpoint: median survival time, dose: 6.25 mg/kg/injection, schedule: Q01DX009 (ip), vehicle: saline, higher = longer survival)?
Its T/C is 97 % of control and 110 % of control.

And the T/C (endpoint: median survival time, dose: 25.0 mg/kg/injection, schedule: Q01DX009 (ip), vehicle: saline, higher = longer survival)?
The T/C was 107 % of control.

`O=C(/C(=C\c1ccccc1)CN1CCOCC1)c1ccc(Br)cc1` was tested. Which T/C (endpoint: median survival time, dose: 50.0 mg/kg/injection, schedule: Q01DX009 (ip), vehicle: saline, higher = longer survival) did it give?
Its T/C is 113 % of control.

And the T/C (endpoint: median survival time, dose: 100.0 mg/kg/injection, schedule: Q01DX009 (ip), vehicle: saline, higher = longer survival)?
Its T/C is 105 % of control.

What does the source list for `Nc1nc(-c2ccccc2N=NN2CCCC2)nc2ccccc12`?
T/C (endpoint: median survival time, dose: 6.25 mg/kg/injection, schedule: Q01DX009 (ip), vehicle: Klucel (hydroxypropylcellulose) (HPC), higher = longer survival): 105 % of control; T/C (endpoint: median survival time, dose: 12.5 mg/kg/injection, schedule: Q01DX009 (ip), vehicle: Klucel (hydroxypropylcellulose) (HPC), higher = longer survival): 97 % of control; T/C [1]: 103 % of control

`COc1cc2c[n+](C)c3c4cc5c(cc4ccc3c2cc1OC)OCO5` (tested in a mixture with another compound) was tested. Which T/C (endpoint: median survival time, dose: 5.0 mg/kg/injection, schedule: Q01DX009 (ip), vehicle: saline, higher = longer survival) did it give?
The T/C was 92 % of control.

What about the T/C (endpoint: median survival time, dose: 10.0 mg/kg/injection, schedule: Q01DX009 (ip), vehicle: saline, higher = longer survival) of the same compound?
The T/C was 96 % of control.

What about the T/C (endpoint: median survival time, dose: 20.0 mg/kg/injection, schedule: Q01DX009 (ip), vehicle: saline, higher = longer survival) of the same compound?
Its T/C is 86 % of control.
